Data taken from the supplement of paper PMC11208160.

experiment: recombinant barcode read abundance after kanamycin selection (control-corrected) (log10(CPM+1)); higher = more efficient recombination; sequences stand for … in AGTGCAGAGAAAATCGGCCAGTTTTCTCTGCCTGCAGTCCGCATGCCGT…AGATTTATGCAGCGGACTGCCTTTCTCCCAAAGTGATAAACCGGACAGTATCATGGACCGGTTTTCCCGGTAATCCGTATTTGCAAGGTTGGTTTCACT; site = the 11-nt target
Summary of the method: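 Duplicate cultures were plated either on chloramphenicol/ampicillin LB agar, serving as control, or on chloramphenicol/ampicillin/kanamycin with 0.1 mM IPTG. These came from a pooled E. coli library co-electroporated with a donor plasmid, each member pairing a target with an IS621 bridge RNA target-binding loop. Recombination efficiency equals averaged, control-corrected counts per million of recombinant-junction barcodes. It is listed as log10(CPM+1).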
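Further: IS621 recombinase and bridge RNA in Escherichia coli cells.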

Going from “TAGGTTCCTTGGGTTCTAACCTGTTGCAT (site TAGGTCCCTAT)” to “TAGGTTCCTTGGGTTCTAACCTGTTGCAT (site TAGGTGCCTAT)”, the “recombinant barcode read abundance (log10)” value rises from 0.335 to 0.6.

Compared with “TAGGTTCCTTGGGTTCTAACCTGTTGCAT (site TAGGTTCCTAT)”, “TAGTACCCTTGGGTTCTAACCTGTTGCAT (site TAGTACCCTAT)” is lower in “recombinant barcode read abundance (log10)” value: 1.04 for the first, 0.43 for the second.

“TAGTACCCTTGGGTTCTAACCTGTTGCAT (site TAGTACCCTCT)” and “TAGTACCCTTGGGTTCTAACCTGTTGCAT (site TAGTACCCTGT)” are within 0.2 log units of each other in “recombinant barcode read abundance (log10)” value: 0.0976 for the first, 0.0568 for the second.

“TAGTACCCTTGGGTTCTAACCTGTTGCAT (site TAGTACCCTTT)” and “TAGTAGTCTTGGGTTCTAACCTGTTGCCT (site TAGTAGTCTAA)” are within 0.2 log units of each other in “recombinant barcode read abundance (log10)” value: 0.227 for the first, 0.0538 for the second.

First: TAGTAGTCTTGGGTTCTAACCTGTTGCCT (site TAGTAGTCTAC)
Second: TAGTAGTCTTGGGTTCTAACCTGTTGCCT (site TAGTAGTCTAG)
The “recombinant barcode read abundance (log10)” value of the first is lower: 0.0503 for the first, 1.64 for the second.

“TAGTAGTCTTGGGTTCTAACCTGTTGCCT (site TAGTAGTCTAT)” and “TAGTATCCTTGGGTTCTAACCTGTTGCCA (site TACTACCCTTG)” are within 0.2 log units of each other in “recombinant barcode read abundance (log10)” value: 0.108 for the first, 0.142 for the second.

Going from “TAGTATCCTTGGGTTCTAACCTGTTGCCA (site TAGTATCCTTG)” to “TAGTATCCTTGGGTTCTAACCTGTTGCTA (site TAGTATCCTTA)”, the “recombinant barcode read abundance (log10)” value rises from 0.146 to 0.714.

Compared with “TAGTATCCTTGGGTTCTAACCTGTTGCTA (site TAGTATGCTTA)”, “TAGTCGTCTTGGGTTCTAACCTGTTGCTT (site TAGTCGTCTAA)” is higher in “recombinant barcode read abundance (log10)” value: 0.0411 for the first, 0.456 for the second.

First: TAGTCGTCTTGGGTTCTAACCTGTTGCTT (site TAGTCGTCTAG)
Second: TAGTCTGCTTGGGTTCTAACCTGTTGCCT (site TAGACTGCTAG)
The “recombinant barcode read abundance (log10)” value of the first is higher: 0.309 for the first, 0.0965 for the second.

First: TAGTCTGCTTGGGTTCTAACCTGTTGCCT (site TAGCCTGCTAG)
Second: TAGTCTGCTTGGGTTCTAACCTGTTGCCT (site TAGGCTGCTAG)
The “recombinant barcode read abundance (log10)” value of the first is higher: 0.27 for the first, 0.0685 for the second.

Compared with “TAGTCTGCTTGGGTTCTAACCTGTTGCCT (site TAGTCTGCTAG)”, “TAGTGCTCTTGGGTTCTAACCTGTTGCCT (site TAGTGCTCTAG)” is higher in “recombinant barcode read abundance (log10)” value: 0.0515 for the first, 1.12 for the second.

Compared with “TAGTGCTCTTGGGTTCTAACCTGTTGCCT (site TAGTGCTCTCG)”, “TAGTGCTCTTGGGTTCTAACCTGTTGCCT (site TAGTGCTCTGG)” is lower in “recombinant barcode read abundance (log10)” value: 0.434 for the first, 0.157 for the second.

“TAGTGCTCTTGGGTTCTAACCTGTTGCCT (site TAGTGCTCTTG)” and “TAGTGGCCTTGGGTTCTAACCTGTTGCCA (site TAGTGGACTTG)” are within 0.2 log units of each other in “recombinant barcode read abundance (log10)” value: 0.178 for the first, 0.095 for the second.

Compared with “TAGTGGCCTTGGGTTCTAACCTGTTGCCA (site TAGTGGCCTTG)”, “TAGTGTACTTGGGTTCTAACCTGTTGCCT (site TAGTGTACTAG)” is higher in “recombinant barcode read abundance (log10)” value: 0.261 for the first, 0.579 for the second.

“TAGTGTACTTGGGTTCTAACCTGTTGCCT (site TAGTGTCCTAG)” and “TAGTGTACTTGGGTTCTAACCTGTTGCCT (site TAGTGTGCTAG)” are within 0.2 log units of each other in “recombinant barcode read abundance (log10)” value: 0.16 for the first, 0.221 for the second.

First: TAGTGTACTTGGGTTCTAACCTGTTGCCT (site TAGTGTTCTAG)
Second: TAGTGTCCTTGGGTTCTAACCTGTTGCAT (site TAGTGTCCTAT)
The “recombinant barcode read abundance (log10)” value of the first is lower: 0.376 for the first, 0.769 for the second.

First: TAGTGTCCTTGGGTTCTAACCTGTTGCAT (site TAGTGTTCTAT)
Second: TAGTTAACTTGGGTTCTAACCTGTTGCCA (site TAGTTAACTTG)
The “recombinant barcode read abundance (log10)” value of the first is lower: 0.155 for the first, 0.569 for the second.

“TAGTTAACTTGGGTTCTAACCTGTTGCCA (site TAGTTCACTTG)” and “TAGTTAACTTGGGTTCTAACCTGTTGCCA (site TAGTTGACTTG)” are within 0.2 log units of each other in “recombinant barcode read abundance (log10)” value: 0.0909 for the first, 0.0635 for the second.

“TAGTTAACTTGGGTTCTAACCTGTTGCCA (site TAGTTTACTTG)” and “TAGTTAGCTTGGGTTCTAACCTGTTGCCG (site TAGTTAGCTAG)” are within 0.2 log units of each other in “recombinant barcode read abundance (log10)” value: 0.0484 for the first, 0.0808 for the second.

Going from “TAGTTAGCTTGGGTTCTAACCTGTTGCCG (site TAGTTAGCTCG)” to “TAGTTAGCTTGGGTTCTAACCTGTTGCCG (site TAGTTAGCTGG)”, the “recombinant barcode read abundance (log10)” value falls from 0.666 to 0.00835.

“TAGTTAGCTTGGGTTCTAACCTGTTGCCG (site TAGTTAGCTTG)” and “TAGTTATCTTGGGTTCTAACCTGTTGCTA (site AGACGTACTAC)” are within 0.2 log units of each other in “recombinant barcode read abundance (log10)” value: 0.0519 for the first, 0.134 for the second.

Compared with “TAGTTATCTTGGGTTCTAACCTGTTGCTA (site TAGTTATCTTA)”, “TAGTTGCCTTGGGTTCTAACCTGTTGCCT (site TAATTGCCTAG)” is higher in “recombinant barcode read abundance (log10)” value: 0.0606 for the first, 0.296 for the second.

Compared with “TAGTTGCCTTGGGTTCTAACCTGTTGCCT (site TACTTGCCTAG)”, “TAGTTGCCTTGGGTTCTAACCTGTTGCCT (site TAGTTGCCTAG)” is higher in “recombinant barcode read abundance (log10)” value: 0 for the first, 0.565 for the second.

“TAGTTGCCTTGGGTTCTAACCTGTTGCCT (site TATTTGCCTAG)” and “TATACACCTTGGGTTCTAACCTGTTGCGT (site CTCCGGGCTCT)” are within 0.2 log units of each other in “recombinant barcode read abundance (log10)” value: 0.0554 for the first, 0.0474 for the second.

Going from “TATACACCTTGGGTTCTAACCTGTTGCGT (site TATACACCTAC)” to “TATACCACTTGGGTTCTAACCTGTTGCCT (site TATACCACTAG)”, the “recombinant barcode read abundance (log10)” value falls from 1.48 to 0.541.

“TATACCACTTGGGTTCTAACCTGTTGCCT (site TCGACCACTAG)” and “TATATGACTTGGGTTCTAACCTGTTGCGG (site ATGCACGCTAG)” are within 0.2 log units of each other in “recombinant barcode read abundance (log10)” value: 0.103 for the first, 0.0662 for the second.

First: TATATGACTTGGGTTCTAACCTGTTGCGG (site TATATGACTCC)
Second: TATCCTCCTTGGGTTCTAACCTGTTGCCG (site GTGGAGTCTAC)
The “recombinant barcode read abundance (log10)” value of the first is higher: 1.41 for the first, 0.177 for the second.

Compared with “TATCCTCCTTGGGTTCTAACCTGTTGCCG (site TATCCTCCTCG)”, “TATCGGCCTTGGGTTCTAACCTGTTGCCT (site TAACGGCCTAG)” is lower in “recombinant barcode read abundance (log10)” value: 0.318 for the first, 0.0814 for the second.

“TATCGGCCTTGGGTTCTAACCTGTTGCCT (site TACCGGCCTAG)” and “TATCGGCCTTGGGTTCTAACCTGTTGCCT (site TAGCGGCCTAG)” are within 0.2 log units of each other in “recombinant barcode read abundance (log10)” value: 0.0568 for the first, 0.0857 for the second.

“TATCGGCCTTGGGTTCTAACCTGTTGCCT (site TATCGGCCTAG)” and “TATGCGCCTTGGGTTCTAACCTGTTGCCT (site CATGTGCCTAG)” are within 0.2 log units of each other in “recombinant barcode read abundance (log10)” value: 0.0996 for the first, 0.149 for the second.

“TATGCGCCTTGGGTTCTAACCTGTTGCCT (site TATGCGCCTAG)” and “TATGGGGCTTGGGTTCTAACCTGTTGCCT (site TATGAGGCTAG)” are within 0.2 log units of each other in “recombinant barcode read abundance (log10)” value: 0.327 for the first, 0.145 for the second.

“TATGGGGCTTGGGTTCTAACCTGTTGCCT (site TATGCGGCTAG)” and “TATGGGGCTTGGGTTCTAACCTGTTGCCT (site TATGGGGCTAG)” are within 0.2 log units of each other in “recombinant barcode read abundance (log10)” value: 0.0621 for the first, 0.246 for the second.

“TATGGGGCTTGGGTTCTAACCTGTTGCCT (site TATGTGGCTAG)” and “TATGTACCTTGGGTTCTAACCTGTTGCCT (site AATGTACCTAG)” are within 0.2 log units of each other in “recombinant barcode read abundance (log10)” value: 0.0518 for the first, 0.052 for the second.

“TATGTACCTTGGGTTCTAACCTGTTGCCT (site CATGTACCTAG)” and “TATGTACCTTGGGTTCTAACCTGTTGCCT (site GATGTACCTAG)” are within 0.2 log units of each other in “recombinant barcode read abundance (log10)” value: 0.234 for the first, 0.101 for the second.

First: TATGTACCTTGGGTTCTAACCTGTTGCCT (site TATGTACCTAG)
Second: TATGTAGCTTGGGTTCTAACCTGTTGCCA (site TATGTAGCTAG)
The “recombinant barcode read abundance (log10)” value of the first is higher: 1.46 for the first, 0.22 for the second.

“TATGTAGCTTGGGTTCTAACCTGTTGCCA (site TATGTAGCTCG)” and “TATGTAGCTTGGGTTCTAACCTGTTGCCA (site TATGTAGCTGG)” are within 0.2 log units of each other in “recombinant barcode read abundance (log10)” value: 0.0344 for the first, 0.201 for the second.

First: TATGTAGCTTGGGTTCTAACCTGTTGCCA (site TATGTAGCTTG)
Second: TATGTGGCTTGGGTTCTAACCTGTTGCCT (site TATGAGGCTAG)
The “recombinant barcode read abundance (log10)” value of the first is higher: 1.05 for the first, 0.551 for the second.

First: TATGTGGCTTGGGTTCTAACCTGTTGCCT (site TATGCGGCTAG)
Second: TATGTGGCTTGGGTTCTAACCTGTTGCCT (site TATGGGGCTAG)
The “recombinant barcode read abundance (log10)” value of the first is higher: 0.296 for the first, 0.0271 for the second.

Going from “TATGTGGCTTGGGTTCTAACCTGTTGCCT (site TATGTGGCTAG)” to “TATGTGTCTTGGGTTCTAACCTGTTGCCT (site TAAGTGTCTAG)”, the “recombinant barcode read abundance (log10)” value rises from 0.179 to 1.67.

Going from “TATGTGTCTTGGGTTCTAACCTGTTGCCT (site TACGTGTCTAG)” to “TATGTGTCTTGGGTTCTAACCTGTTGCCT (site TAGGTGTCTAG)”, the “recombinant barcode read abundance (log10)” value falls from 0.509 to 0.0112.

Compared with “TATGTGTCTTGGGTTCTAACCTGTTGCCT (site TATGTGTCTAG)”, “TATTACCCTTGGGTTCTAACCTGTTGCCT (site TATTAACCTAG)” is lower in “recombinant barcode read abundance (log10)” value: 2.01 for the first, 0.035 for the second.

First: TATTACCCTTGGGTTCTAACCTGTTGCCT (site TATTACCCTAG)
Second: TATTACCCTTGGGTTCTAACCTGTTGCCT (site TATTAGCCTAG)
The “recombinant barcode read abundance (log10)” value of the first is higher: 0.739 for the first, 0.0773 for the second.

“TATTACCCTTGGGTTCTAACCTGTTGCCT (site TATTATCCTAG)” and “TATTCTACTTGGGTTCTAACCTGTTGCGG (site TATTCTACTAC)” are within 0.2 log units of each other in “recombinant barcode read abundance (log10)” value: 0.12 for the first, 0.0937 for the second.
